How the values were obtained:
[1] = molecular target: 11-beta-hydroxysteroid dehydrogenase 1 (Homo sapiens, UniProt P28845); assay: Inhibition of 11beta-HSD1 in human microsomes by HTRF cortisol assay; set-up: species or system Microsome
[2] = molecular target: 11-beta-hydroxysteroid dehydrogenase 1 (Mus musculus, UniProt P50172); assay: Inhibition of 11beta-HSD1 in mouse C2C12 cells by HTRF cortisol assay; assay type: cell-based
[3] = Half life in human liver microsomes; assay type: ADME, Microsome
[4] = Oral bioavailability in rat; assay type: ADME, organism-based; conditions: in vivo
Rattus norvegicus = species on record: Rattus norvegicus; assay: Clearance in rat; assay type: ADME, organism-based; conditions: in vivo
[5] = Cmax in rat; assay type: ADME, organism-based; conditions: in vivo
[6] = molecular target: T1, 11-beta-hydroxysteroid dehydrogenase type 2 (Homo sapiens) (UniProt P80365); assay: Inhibition of human 11beta-HSD2 overexpressed in HEK293 cells at 20 uM by HTRF cortisol assay; assay type: cell-based
T1 sequence (whole entry): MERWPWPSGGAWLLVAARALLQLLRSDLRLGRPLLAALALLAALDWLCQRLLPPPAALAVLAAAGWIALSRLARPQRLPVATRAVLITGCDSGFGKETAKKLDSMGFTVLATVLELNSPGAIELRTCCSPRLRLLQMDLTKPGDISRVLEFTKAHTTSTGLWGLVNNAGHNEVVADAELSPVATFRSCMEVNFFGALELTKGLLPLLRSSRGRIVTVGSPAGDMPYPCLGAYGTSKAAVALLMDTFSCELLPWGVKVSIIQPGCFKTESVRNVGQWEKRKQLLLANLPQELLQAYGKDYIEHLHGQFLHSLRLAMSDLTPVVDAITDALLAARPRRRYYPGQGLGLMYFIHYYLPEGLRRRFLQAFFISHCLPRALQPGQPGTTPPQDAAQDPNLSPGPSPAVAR

[7] = molecular target: Voltage-gated inwardly rectifying potassium channel KCNH2 (Homo sapiens, UniProt Q12809); assay: Inhibition of human ERG
Voltage-gated inwardly rectifying potassium channel KCNH2, sequence (Q12809 whole entry): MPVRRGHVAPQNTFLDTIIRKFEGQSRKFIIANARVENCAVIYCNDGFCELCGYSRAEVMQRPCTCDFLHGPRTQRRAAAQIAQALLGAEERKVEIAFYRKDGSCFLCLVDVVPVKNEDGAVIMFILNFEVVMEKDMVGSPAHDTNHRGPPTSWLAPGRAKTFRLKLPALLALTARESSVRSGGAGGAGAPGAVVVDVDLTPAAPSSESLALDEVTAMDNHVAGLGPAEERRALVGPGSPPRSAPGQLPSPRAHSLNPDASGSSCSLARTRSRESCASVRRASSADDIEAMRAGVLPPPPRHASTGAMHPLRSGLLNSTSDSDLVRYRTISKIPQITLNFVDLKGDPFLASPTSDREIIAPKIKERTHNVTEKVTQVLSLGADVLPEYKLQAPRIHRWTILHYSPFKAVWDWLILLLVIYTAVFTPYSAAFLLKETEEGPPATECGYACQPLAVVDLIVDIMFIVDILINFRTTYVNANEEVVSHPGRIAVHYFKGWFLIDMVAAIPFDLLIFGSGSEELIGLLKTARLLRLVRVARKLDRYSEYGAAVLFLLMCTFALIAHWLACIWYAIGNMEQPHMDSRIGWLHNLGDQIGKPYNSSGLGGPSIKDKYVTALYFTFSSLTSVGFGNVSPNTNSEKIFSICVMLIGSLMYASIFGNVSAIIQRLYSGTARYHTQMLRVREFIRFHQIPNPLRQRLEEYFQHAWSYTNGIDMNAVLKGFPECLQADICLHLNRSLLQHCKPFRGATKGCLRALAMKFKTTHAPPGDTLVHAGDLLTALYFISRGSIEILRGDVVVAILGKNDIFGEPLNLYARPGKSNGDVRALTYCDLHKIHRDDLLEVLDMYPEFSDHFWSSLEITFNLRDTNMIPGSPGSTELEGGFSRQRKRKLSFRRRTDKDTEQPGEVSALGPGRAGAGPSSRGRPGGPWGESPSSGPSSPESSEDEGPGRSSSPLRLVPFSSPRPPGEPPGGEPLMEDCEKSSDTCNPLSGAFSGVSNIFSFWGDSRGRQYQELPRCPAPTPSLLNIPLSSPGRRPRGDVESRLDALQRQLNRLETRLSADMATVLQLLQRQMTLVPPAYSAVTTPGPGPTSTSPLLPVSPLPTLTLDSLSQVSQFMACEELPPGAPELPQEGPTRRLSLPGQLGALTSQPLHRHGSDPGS

[8] = Half life in rat; assay type: ADME, organism-based; conditions: in vivo

11-beta-hydroxysteroid dehydrogenase 1 (Homo sapiens, UniProt P28845), sequence (P28845 whole entry): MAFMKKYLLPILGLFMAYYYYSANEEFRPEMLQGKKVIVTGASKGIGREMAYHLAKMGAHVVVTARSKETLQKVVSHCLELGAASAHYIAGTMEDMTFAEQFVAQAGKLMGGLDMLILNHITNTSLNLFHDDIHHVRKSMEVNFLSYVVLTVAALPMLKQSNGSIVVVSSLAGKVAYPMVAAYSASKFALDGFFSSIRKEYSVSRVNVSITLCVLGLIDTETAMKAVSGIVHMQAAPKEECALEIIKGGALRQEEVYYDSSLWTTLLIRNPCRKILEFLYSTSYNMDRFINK
11-beta-hydroxysteroid dehydrogenase 1 (Mus musculus, UniProt P50172), sequence (P50172 whole entry): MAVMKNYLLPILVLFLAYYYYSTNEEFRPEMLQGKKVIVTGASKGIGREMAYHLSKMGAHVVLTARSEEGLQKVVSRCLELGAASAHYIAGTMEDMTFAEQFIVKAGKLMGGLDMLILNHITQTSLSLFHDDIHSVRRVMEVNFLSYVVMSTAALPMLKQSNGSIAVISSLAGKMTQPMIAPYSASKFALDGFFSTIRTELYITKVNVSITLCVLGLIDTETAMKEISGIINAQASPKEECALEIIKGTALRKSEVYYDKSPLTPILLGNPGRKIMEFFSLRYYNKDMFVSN

With `O=C(CN1C(C(=O)c2ccccc2)=C(O)c2ccccc2S1(=O)=O)c1ccc(-c2ccccc2)cc1` the IC50 [1] was 28 nM.

Work on `O=C(O)c1ccc(C(=O)CN2C(C(=O)c3ccccc3)=C(O)c3ccccc3S2(=O)=O)cc1` yielded an IC50 [1] of 720 nM.

With `O=C(CN1C(C(=O)c2ccccc2)=C(O)c2ccccc2S1(=O)=O)c1ccc([N+](=O)[O-])cc1` the IC50 [1] was 30 nM.

Molecule `N#Cc1ccc(C(=O)CN2C(C(=O)c3ccccc3)=C(O)c3ccccc3S2(=O)=O)cc1` has an IC50 [1] of 40 nM and an IC50 [2] of 9000 nM.

`COC(=O)c1ccc(C(=O)CN2C(C(=O)c3ccccc3)=C(O)c3ccccc3S2(=O)=O)cc1` showed an IC50 [1] of 31 nM.

Molecule `O=C(CN1C(C(=O)c2ccccc2)=C(O)c2ccccc2S1(=O)=O)c1ccccc1` has an IC50 [2] of 7800 nM, a half-life [3] of 1.25 h and a bioavailability [4] of 48.7%. It also gave a CL (Rattus norvegicus) of 6.7 mL/min/kg, a Cmax [5] of 1100 ng/mL and an inhibition [6] of 6%. For the same molecule, the IC50 [7] was over 100000 nM and the half-life [8] was 5.5 h.

Reference: ChEMBL document CHEMBL1159080, “Discovery of cyclicsulfonamide derivatives as 11 beta-hydroxysteroid dehydrogenase 1 inhibitors” (Bioorg Med Chem Lett, 2010)
